Legend:
[1] = Prodrug conversion in human plasma assessed as release of active metabolite (R)-(6-chloro-4-(5-cyclopropyl-1H-pyrazol-3-ylamino)quinazolin-2-yl)(3-methylpiperazin-1-yl)methanone hydrochloride measured within 120 mins at 37 degC by HPLC analysis; assay type: ADME, cell-free; conditions: 2 h
[2] = Cmax in Wistar rat assessed as (R)-(6-chloro-4-(5-cyclopropyl-1H-pyrazol-3-ylamino)quinazolin-2-yl)(3-methylpiperazin-1-yl)methanone hydrochloride at 12.43 mg/kg, po measured upto 24 hrs by LC/MS/MS analysis; assay type: ADME, organism-based; design: route oral, dose 12.43 mg/kg, time <=24; conditions: in vivo
[3] = Stability of the compound in rat liver S9 fraction assessed as compound remaining measured after 60 mins at 37 degC by LC-MS/MS analysis; assay type: ADME, subcellular; conditions: read-out: Stabilty
[4] = AUC (0 to infinity) in Wistar rat assessed as (R)-(6-chloro-4-(5-cyclopropyl-1H-pyrazol-3-ylamino)quinazolin-2-yl)(3-methylpiperazin-1-yl)methanone hydrochloride at 12.43 mg/kg, po measured upto 24 hrs by LC/MS/MS analysis; assay type: ADME, organism-based; design: route oral, dose 12.43 mg/kg, time <=24; conditions: in vivo
[5] = Chemical stability of the compound in pH 1.2 simulated gastric fluid buffer assessed as compound remaining measured after 2 hrs by HPLC analysis; assay type: physicochemical
[6] = Tmax in Wistar rat assessed as (R)-(6-chloro-4-(5-cyclopropyl-1H-pyrazol-3-ylamino)quinazolin-2-yl)(3-methylpiperazin-1-yl)methanone hydrochloride at 12.43 mg/kg, po measured upto 24 hrs by LC/MS/MS analysis; assay type: ADME, organism-based; conditions: in vivo
[7] = Half life in Wistar rat assessed as (R)-(6-chloro-4-(5-cyclopropyl-1H-pyrazol-3-ylamino)quinazolin-2-yl)(3-methylpiperazin-1-yl)methanone hydrochloride at 12.43 mg/kg, po measured upto 24 hrs by LC/MS/MS analysis; assay type: ADME, organism-based; conditions: in vivo
[8] = Chemical stability of the compound in pH 7.4 PBS buffer assessed as compound remaining measured after 2 hrs by HPLC analysis; assay type: physicochemical; conditions: read-out: Stabilty
[9] = AUC in Wistar rat assessed as (R)-(6-chloro-4-(5-cyclopropyl-1H-pyrazol-3-ylamino)quinazolin-2-yl)(3-methylpiperazin-1-yl)methanone hydrochloride at 12.43 mg/kg, po measured upto 24 hrs by LC/MS/MS analysis; assay type: ADME, organism-based; design: route oral, dose 12.43 mg/kg, time <=24; conditions: in vivo
[10] = Stability of the compound in human plasma assessed as compound remaining measured within 120 mins at 37 degC by HPLC analysis; assay type: ADME, cell-free; conditions: read-out: Stabilty
[11] = Chemical stability of the compound in pH 6.8 simulated intestinal fluid assessed as compound remaining measured after 2 hrs by HPLC analysis; assay type: physicochemical
[12] = AUC in Wistar rat assessed as (R)-(6-chloro-4-(5-cyclopropyl-1H-pyrazol-3-ylamino)quinazolin-2-yl)(3-methylpiperazin-1-yl)methanone hydrochloride at 13.84 mg/kg, po measured upto 24 hrs by LC/MS/MS analysis; assay type: ADME, organism-based; design: route oral, dose 13.84 mg/kg, time <=24; conditions: in vivo
[13] = Tmax in Wistar rat assessed as (R)-(6-chloro-4-(5-cyclopropyl-1H-pyrazol-3-ylamino)quinazolin-2-yl)(3-methylpiperazin-1-yl)methanone hydrochloride at 13.84 mg/kg, po measured upto 24 hrs by LC/MS/MS analysis; assay type: ADME, organism-based; conditions: in vivo
[14] = Half life in Wistar rat assessed as (R)-(6-chloro-4-(5-cyclopropyl-1H-pyrazol-3-ylamino)quinazolin-2-yl)(3-methylpiperazin-1-yl)methanone hydrochloride at 13.84 mg/kg, po measured upto 24 hrs by LC/MS/MS analysis; assay type: ADME, organism-based; conditions: in vivo
[15] = Cmax in Wistar rat assessed as (R)-(6-chloro-4-(5-cyclopropyl-1H-pyrazol-3-ylamino)quinazolin-2-yl)(3-methylpiperazin-1-yl)methanone hydrochloride at 13.84 mg/kg, po measured upto 24 hrs by LC/MS/MS analysis; assay type: ADME, organism-based; design: route oral, dose 13.84 mg/kg, time <=24; conditions: in vivo
[16] = AUC (0 to infinity) in Wistar rat assessed as (R)-(6-chloro-4-(5-cyclopropyl-1H-pyrazol-3-ylamino)quinazolin-2-yl)(3-methylpiperazin-1-yl)methanone hydrochloride at 13.84 mg/kg, po measured upto 24 hrs by LC/MS/MS analysis; assay type: ADME, organism-based; design: route oral, dose 13.84 mg/kg, time <=24; conditions: in vivo
[17] = Half life in Wistar rat at 10 mg/kg, po measured upto 24 hrs by LC/MS/MS analysis; assay type: ADME, organism-based; conditions: in vivo
[18] = Volume of distribution in Wistar rat at 2 mg/kg, iv measured upto 24 hrs by LC/MS/MS analysis; assay type: ADME, organism-based; conditions: in vivo
[19] = AUC (0 to t) in Wistar rat at 10 mg/kg, po measured upto 24 hrs by LC/MS/MS; assay type: ADME, organism-based; design: route oral, dose 10 mg/kg, time <=24; conditions: in vivo
[20] = Tmax in Wistar rat at 10 mg/kg, po measured upto 24 hrs by LC/MS/MS analysis; assay type: ADME, organism-based; conditions: in vivo
[21] = Cmax in Wistar rat at 10 mg/kg, po measured upto 24 hrs by LC/MS/MS analysis; assay type: ADME, organism-based; design: route oral, dose 10 mg/kg, time <=24; conditions: in vivo
[22] = AUC (0 to infinity) in Wistar rat at 10 mg/kg, po measured upto 24 hrs by LC/MS/MS analysis; assay type: ADME, organism-based; design: route oral, dose 10 mg/kg, time <=24; conditions: in vivo
[23] = Half life in Wistar rat at 2 mg/kg, iv measured upto 24 hrs by LC/MS/MS analysis; assay type: ADME, organism-based; conditions: in vivo
[24] = Initial plasma concentration in Wistar rat at 2 mg/kg, iv measured upto 24 hrs by LC/MS/MS analysis; assay type: ADME, organism-based; conditions: in vivo
[25] = AUC (0 to infinity) in Wistar rat at 2 mg/kg, iv measured upto 24 hrs by LC/MS/MS analysis; assay type: ADME, organism-based; design: route intravenous, dose 2 mg/kg, time <=24; conditions: in vivo
[26] = AUC in Wistar rat at 2 mg/kg, iv measured upto 24 hrs by LC/MS/MS analysis; assay type: ADME, organism-based; design: route intravenous, dose 2 mg/kg, time <=24; conditions: in vivo
[27] = Clearance in Wistar rat at 2 mg/kg, iv measured upto 24 hrs by LC/MS/MS analysis; assay type: ADME, organism-based; conditions: in vivo
[28] = Oral bioavailability in Wistar rat assessed as (R)-(6-chloro-4-(5-cyclopropyl-1H-pyrazol-3-ylamino)quinazolin-2-yl)(3-methylpiperazin-1-yl)methanone hydrochloride at 10 mg/kg measured upto 24 hrs by LC/MS/MS analysis; assay type: ADME, organism-based; conditions: in vivo
[29] = Tmax in Wistar rat assessed as (R)-(6-chloro-4-(5-cyclopropyl-1H-pyrazol-3-ylamino)quinazolin-2-yl)(3-methylpiperazin-1-yl)methanone hydrochloride at 14.18 mg/kg, po measured upto 24 hrs by LC/MS/MS analysis; assay type: ADME, organism-based; conditions: in vivo
[30] = Cmax in Wistar rat assessed as (R)-(6-chloro-4-(5-cyclopropyl-1H-pyrazol-3-ylamino)quinazolin-2-yl)(3-methylpiperazin-1-yl)methanone hydrochloride at 14.18 mg/kg, po measured upto 24 hrs by LC/MS/MS analysis; assay type: ADME, organism-based; design: route oral, dose 14.18 mg/kg, time <=24; conditions: in vivo
[31] = Half life in Wistar rat assessed as (R)-(6-chloro-4-(5-cyclopropyl-1H-pyrazol-3-ylamino)quinazolin-2-yl)(3-methylpiperazin-1-yl)methanone hydrochloride at 14.18 mg/kg, po measured upto 24 hrs by LC/MS/MS analysis; assay type: ADME, organism-based; conditions: in vivo
[32] = AUC (0 to infinity) in Wistar rat assessed as (R)-(6-chloro-4-(5-cyclopropyl-1H-pyrazol-3-ylamino)quinazolin-2-yl)(3-methylpiperazin-1-yl)methanone hydrochloride at 14.18 mg/kg, po measured upto 24 hrs by LC/MS/MS analysis; assay type: ADME, organism-based; design: route oral, dose 14.18 mg/kg, time <=24; conditions: in vivo
[33] = AUC in Wistar rat assessed as (R)-(6-chloro-4-(5-cyclopropyl-1H-pyrazol-3-ylamino)quinazolin-2-yl)(3-methylpiperazin-1-yl)methanone hydrochloride at 14.18 mg/kg, po measured upto 24 hrs by LC/MS/MS analysis; assay type: ADME, organism-based; design: route oral, dose 14.18 mg/kg, time <=24; conditions: in vivo

SMILES	Drug metabolism [1] [%]	remaining at 1 h [3] [%]	Stability [5] [%]	remaining at 2 h [8] [%]	remaining at 2 h [10] [%]	Stability [11] [%]	other results
CC(C)COC(=O)N1CCN(C(=O)c2nc(Nc3cc(C4CC4)[nH]n3)c3cc(Cl)ccc3n2)C[C@H]1C	25.7	61.1	70.2	99	73.7	88.8	Cmax [2]: 7.4 ng/mL; AUC [4]: 111.2 ng·h/mL; Tmax [6]: 1.5 h; t1/2 [7]: 16.723 h; AUC [9]: 63.5 ng·h/mL
CCCCCOC(=O)N1CCN(C(=O)c2nc(Nc3cc(C4CC4)[nH]n3)c3cc(Cl)ccc3n2)C[C@H]1C	21.4	63.9	88.4	99.8	74.4	90.7	–
CC(C)OC(=O)N1CCN(C(=O)c2nc(Nc3cc(C4CC4)[nH]n3)c3cc(Cl)ccc3n2)C[C@H]1C	18.7	78.6	70.2	99	78.5	94.4	–
COC(=O)N1CCN(C(=O)c2nc(Nc3cc(C4CC4)[nH]n3)c3cc(Cl)ccc3n2)C[C@H]1C	13.4	34.2	95.2	100	84.6	91.5	–
C[C@@H]1CN(C(=O)c2nc(Nc3cc(C4CC4)[nH]n3)c3cc(Cl)ccc3n2)CCN1C(=O)OCc1ccccc1	13.5	45.6	84.7	97.7	86.2	93.6	–
CCOC(=O)N1CCN(C(=O)c2nc(Nc3cc(C4CC4)[nH]n3)c3cc(Cl)ccc3n2)C[C@H]1C	14.8	48.5	89.5	97.7	85.3	92.9	–
C[C@@H]1CN(C(=O)c2nc(Nc3cc(C4CC4)[nH]n3)c3cc(Cl)ccc3n2)CCN1C(=O)OC(C)(C)C	20.7	71.3	37.1	99.1	73.7	90.2	–
CC(OC(=O)C(C)C)OC(=O)N1CCN(C(=O)c2nc(Nc3cc(C4CC4)[nH]n3)c3cc(Cl)ccc3n2)C[C@H]1C (stereo not given in full)	78.8	11	62.5	96.6	17.4	88.6	AUC [12]: 50 ng·h/mL; Tmax [13]: 4.98 min; t1/2 [14]: 10.35 h; Cmax [15]: 28.3 ng/mL; AUC [16]: 59.6 ng·h/mL
C[C@@H]1CN(C(=O)c2nc(Nc3cc(C4CC4)[nH]n3)c3cc(Cl)ccc3n2)CCN1.Cl	–	53.9	–	–	97.4	–	half-life [17]: 3.9 h; Vd [18]: 12.4 L/kg; AUC(0-t) at 24 h [19]: 106 ng·h/mL; Tmax [20]: 4.98 min; Cmax [21]: 14.9 ng/mL; AUC(0-inf) [22]: 108 ng·h/mL; half-life [23]: 4.8 h; C0 [24]: 4520 ng/mL; AUC(0-inf) [25]: 1120 ng·h/mL; AUC at 24 h [26]: 1110 ng·h/mL; clearance [27]: 29.7 mL/min/kg; F [28]: 1.92%
C[C@@H]1CN(C(=O)c2nc(Nc3cc(C4CC4)[nH]n3)c3cc(Cl)ccc3n2)CCN1C(=O)OCOC(=O)C(C)(C)C	94	47	83.9	97.7	0	93	AUC [12]: 28.8 ng·h/mL; Tmax [13]: 4.98 min; t1/2 [14]: 30.204 h; Cmax [15]: 2.8 ng/mL; AUC [16]: 67.6 ng·h/mL
C[C@@H]1CN(C(=O)c2nc(Nc3cc(C4CC4)[nH]n3)c3cc(Cl)ccc3n2)CCN1C(=O)OCC(Cl)(Cl)Cl	16.3	78.9	88.5	98.7	79	88.2	–
CC(OC(=O)N1CCN(C(=O)c2nc(Nc3cc(C4CC4)[nH]n3)c3cc(Cl)ccc3n2)C[C@H]1C)OC(=O)C(C)(C)C (stereo not given in full)	46.3	66.3	92.2	90.5	49.4	88.7	Tmax [29]: 8 h; Cmax [30]: 3.9 ng/mL; t1/2 [31]: 8.378 h; AUC [32]: 44.2 ng·h/mL; AUC [33]: 35.1 ng·h/mL

From ChEMBL document CHEMBL4765244, “Synthesis, bioconversion, pharmacokinetic and pharmacodynamic evaluation of N-isopropyl-oxy-carbonyloxymethyl prodrugs of CZh-226, a potent and selective PAK4 inhibitor” (Eur J Med Chem, 2020)
